Several values for one entry are separate records, joined by “and”; a condition that tells them apart may be missing. Equal values may be shown once.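 Growth conditions: 96-well plates. Treatment: test compound, 48 hours, 5 concentrations. Analysis: linear interpolation between bracketing concentrations; unreached endpoints set to highest concentration. GI50 marks 50% less growth. The concentration for full growth arrest is given as TGI.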
Key:
Assay in all cases: inhibition of tumour cell growth, NCI panel, 48 h
[1] = tested on: SF-295 CNS
[2] = tested on: IGROV1 ovarian
[3] = tested on: 786-0 renal
[4] = tested on: NCI-H460 lung
[5] = tested on: SW-620 colon
[6] = tested on: SK-OV-3 ovarian
[7] = tested on: DU-145 prostate
[8] = tested on: MDA-MB-435
[9] = tested on: BT-549 breast
[10] = tested on: SR leukemia

Compound | TGI [1] | TGI [2] | TGI [3] | TGI [4] | TGI [5] | TGI [6] | GI50 [1] | GI50 [2] | GI50 [3] | GI50 [4] | GI50 [7] | TGI [7] | GI50 [5] | GI50 [6] | GI50 [8] | TGI [8] | GI50 [9] | TGI [9] | GI50 [10] | TGI [10]
N#Cc1cccc(NC(=O)c2ccc(C(=O)O)c(C(=O)c3ccc(C(=O)O)c(C(=O)Nc4cccc(C#N)c4)c3)c2)c1 | > 100 µM | > 100 µM | > 100 µM | > 100 µM | > 100 µM | > 100 µM | – | – | – | – | – | – | – | – | – | – | – | – | – | –
C=C(CN1CCN(c2ccccc2OC)CC1)c1ccc(C(=O)Nc2ccccc2N)cc1 | 15.4 µM | 30.6 µM | 29.1 µM | > 50 µM | > 50 µM | 18.1 µM | 4110 nM | 9540 nM | 2450 nM | 17500 nM | 3.8 µM | 39.5 µM | 2100 nM | 7180 nM | 1270 nM | 3.38 µM | 7120 nM | 26900 nM | – | –
COc1ccc(-c2nn(-c3cccc(Cl)c3)cc2C=C(C#N)C#N)cc1 | 5.31 µM | 6.29 µM | 6.36 µM | 5.37 µM | 5.45 µM | 5.72 µM | 2310 nM | 2850 nM | 2250 nM | 2050 nM | 3.55 µM | 90.1 µM | 1900 nM | 2660 nM | – | – | 1550 nM | 4050 nM | 1540 nM | 3.66 µM
COc1ccc2cccc(C(=O)c3ccc(C)c4c3CCC4)c2c1 | > 100 µM | 99.2 µM | 77.7 µM | > 100 µM | > 100 µM | > 100 µM | – | – | – | – | – | – | – | – | – | – | – | – | – | 85.3 µM
CCOC(=O)C1N(S(=O)(=O)c2ccc(C)cc2)CCC12c1ccccc1N(C(C)=O)C2C(/C=C/C(=O)OC)=C/C(=O)OC (centres undefined) | > 100 µM | > 100 µM | > 100 µM | > 100 µM | > 100 µM | > 100 µM | – | – | – | – | – | – | – | – | – | – | – | – | – | –
C/C1=C\[C@H](C)C[C@H](C)OC(=O)C[C@H](c2ccc(O)cc2)NC(=O)[C@@H](Cc2c(Br)[nH]c3ccccc23)N(C)C(=O)[C@H](C)NC(=O)[C@@H](C)C1 | 0.699 µM and 0.18 µM | 0.265 µM and 0.0602 µM | 0.384 µM and 0.255 µM | 23.6 µM | > 100 µM | 0.579 µM and 0.0749 µM | 34.9 nM | 23 nM | 27.5 nM | 12.6 nM | – | – | 34.7 nM | 26.7 nM | 44.5 nM | 17.7 µM | – | 66.9 nM | 587 nM | 4.21 µM
Cc1cc(C)cc(-n2c3nc(=O)n(C)c(=O)c-3nc3ccccc32)c1 | > 100 µM | 94.6 µM | > 100 µM | 94.4 µM | 40.7 µM | > 100 µM | – | – | – | – | – | – | – | – | – | – | – | – | – | –
C[Si](C)(C)/C=C/CCC(C=O)(CCCl)c1ccccc1 (centres undefined) | 57.2 µM | > 100 µM | 40.8 µM | > 100 µM | > 100 µM | > 100 µM | – | – | – | – | – | – | – | – | – | – | – | – | – | –
Cc1ccc2c(c1)C(=O)c1c-2n(CCCN)c(=O)c2cc([N+](=O)[O-])ccc12 | 0.663 µM | 0.985 µM | 0.208 µM | 0.629 µM | – | 0.502 µM | 120 nM | 176 nM | 57.6 nM | 34.9 nM | 0.262 µM | 0.89 µM | – | 147 nM | 413 nM | 1.09 µM | 746 nM | 1570 nM | 39.4 nM | 0.201 µM
c1ccc2c(CNCCCCCCNCc3cccc4ccccc34)cccc2c1 | 24.8 µM | 30.7 µM | 26.1 µM | 3.75 µM | 14.1 µM | 31.5 µM | – | – | – | – | – | – | – | – | – | – | – | – | – | 4.47 µM
